# From US20210069120A1, “COMPOSITE NANOPARTICLE, PREPARATION METHOD THEREOF AND PREPARATION METHOD OF COMPOSITE NANO PREPARATION USING THEREOF” (JINAN UNIVERSITY, priority 2018, published 2021)
# Key:
# MDA-MB-231 cells [1] = experiment: Apoptosis of MDA-MB-231 cells detected by flow cytometry (Annexin V-FITC/PI); assay type: cell-based, human
# Method: After Blank PLN, PTX, PSO, I-PSO, PTX+PSO+I-PSO and (PTX+PSO+I-PSO)-PLN were used to act on the MDA-MB-231 cells respectively, a blank control without drug treatment was set at the same time. Cells were collected, an Annexin V-FITC buffer solution and a propidium iodide (PI) staining solution were added respectively, and cell apoptosis was detected by a flow cytometry, wherein green fluorescence was Annexin V-FITC, and red fluorescence was PI. Annexin V-FITC/PI double staining was dominant in late apoptotic cells and dead cells which referred to an upper right region on a flow cytometry diagram, while AnnexinV-FITC staining was dominant in early apoptotic cells which referred to a lower right region on the flow cytometry diagram. The experiment was repeated for three times.
# MDA-MB-231 cells [2] = experiment: MTT proliferation inhibition / toxicity on MDA-MB-231; assay type: cell-based, human; conditions: 48 hours, concentration range of 0.39 to 100 μmol/L
# Method: 4×10^3 MDA-MB-231 cells/well were inoculated into a 96-well plate with a concentration of 100 μL/well, and cultured in a 5% CO2 cell incubator at 37° C. for 24 hours, then a supernatant was removed after 24 hours, and 200 μL of drug-containing medium was added. The final concentrations of the PTX added to the MDA-MB-231 cells were 0.0039 μmol/L, 0.0078 μmol/L, 0.0156 μmol/L, 0.03125 μmol/L, 0.0625 μmol/L, 0.125 μmol/L, 0.25 μmol/L, 0.5 μmol/L and 1 μmol/L. At the same time, a control group (the same amount of culture fluid was added) and a blank zeroing group were set up. Each well was provided with 6 multiple wells and placed in a CO2 incubator for continuous cultivation for 48 hours. […] An OD value was measured at 570 nm of an enzyme reader. […]
# (§1) 4×10^3 MDA-MB-231 cells/well were inoculated into a 96-well plate with a concentration of 100 μL/well, and cultured in a 5% CO2 cell incubator at 37° C. for 24 hours, then a supernatant was removed after 24 hours, and 200 μL of drug-containing medium was added. […] An OD value was measured at 570 nm of an enzyme reader. […]
# as §1
SMILES,Apoptosis rate (%) of MDA-MB-231 cells (MDA-MB-231 cells [1]),toxicity to the MDA-MB-231 cells (cell viability) (MDA-MB-231 cells [2])
"O=c1ccc2ccc3occc3c2o1 [I-PSO, isopsoralen]",11.5%,–
"O=c1ccc2cc3ccoc3cc2o1 [PSO, psoralen]",13.8%,no obvious toxicity
"CC(=O)O[C@H]1C(=O)[C@@]2(C)[C@H]([C@H](OC(=O)c3ccccc3)[C@]3(O)C[C@H](OC(=O)[C@H](O)[C@@H](NC(=O)c4ccccc4)c4ccccc4)C(C)=C1C3(C)C)[C@]1(OC(C)=O)CO[C@@H]1C[C@@H]2O [PTX, paclitaxel]",15.1%,–
